ChEMBL document CHEMBL4145553, “Design, synthesis, and biological evaluation of novel amide and hydrazide based thioether analogs targeting Histone deacteylase (HDAC) enzymes” (Eur J Med Chem, 2018)
Calls of active or inactive are those of the source. No cut-off for these calls is given here.

Columns and labels:
[1] = tested on: MDA-MB-435; experiment: Growth inhibition of human MDA-MB-435 cells assessed as cell growth at 10^-8 M incubated for 48 hrs by sulforhodamine B assay relative to control; type: functional; conditions: MDA-MB-435, 48 h, read-out: Activity
[2] = tested on: OVCAR-8; experiment: Growth inhibition of human OVCAR8 cells assessed as cell growth at 10^-8 M incubated for 48 hrs by sulforhodamine B assay relative to control; type: functional; conditions: OVCAR-8, 48 h, read-out: Activity
[3] = tested on: T47D; experiment: Growth inhibition of human T47D cells assessed as cell growth at 10^-8 M incubated for 48 hrs by sulforhodamine B assay relative to control; type: functional; conditions: read-out: Activity
[4] = tested on: MDA-MB-468; experiment: Growth inhibition of human MDA-MB-468 cells assessed as cell growth at 10^-8 M incubated for 48 hrs by sulforhodamine B assay relative to control; type: functional; conditions: MDA-MB-468, 48 h, read-out: Activity
[5] = tested on: NCI-H226; experiment: Growth inhibition of human NCI-H226 cells assessed as cell growth at 10^-7 M incubated for 48 hrs by sulforhodamine B assay relative to control; type: functional; conditions: NCI-H226, 48 h, read-out: Activity
[6] = tested on: NCI/ADR-RES; experiment: Growth inhibition of human NCI/ADR-RES cells assessed as cell growth at 10^-7 M incubated for 48 hrs by sulforhodamine B assay relative to control; type: functional; conditions: read-out: Activity
[7] = tested on: ACHN; experiment: Growth inhibition of human ACHN cells assessed as cell growth at 10^-7 M incubated for 48 hrs by sulforhodamine B assay relative to control; type: functional; conditions: read-out: Activity
[8] = tested on: CAKI-1; experiment: Growth inhibition of human Caki1 cells assessed as cell growth at 10^-7 M incubated for 48 hrs by sulforhodamine B assay relative to control; type: functional; conditions: CAKI-1, 48 h, read-out: Activity
[9] = tested on: T47D; experiment: Growth inhibition of human T47D cells assessed as cell growth at 10^-7 M incubated for 48 hrs by sulforhodamine B assay relative to control; type: functional; conditions: read-out: Activity
[10] = tested on: MDA-MB-468; experiment: Growth inhibition of human MDA-MB-468 cells assessed as cell growth at 10^-7 M incubated for 48 hrs by sulforhodamine B assay relative to control; type: functional; conditions: MDA-MB-468, 48 h, read-out: Activity
[11] = tested on: RPMI-8226; experiment: Growth inhibition of human RPMI8226 cells assessed as cell growth at 10^-6 M incubated for 48 hrs by sulforhodamine B assay relative to control; type: functional; conditions: RPMI-8226, 48 h, read-out: Activity
[12] = tested on: SF-268; experiment: Growth inhibition of human SF268 cells assessed as cell growth at 10^-6 M incubated for 48 hrs by sulforhodamine B assay relative to control; type: functional; conditions: SF-268, 48 h, read-out: Activity
[13] = tested on: Malme-3M; experiment: Growth inhibition of human MALME-3M cells assessed as cell growth at 10^-6 M incubated for 48 hrs by sulforhodamine B assay relative to control; type: functional; conditions: read-out: Activity
[14] = tested on: MCF7; experiment: Growth inhibition of human MCF7 cells assessed as cell growth at 10^-6 M incubated for 48 hrs by sulforhodamine B assay relative to control; type: functional; conditions: MCF7, 48 h, read-out: Activity
[15] = tested on: EKVX; experiment: Growth inhibition of human EKVX cells assessed as cell growth at 10^-5 M incubated for 48 hrs by sulforhodamine B assay relative to control; type: functional; conditions: read-out: Activity
[16] = tested on: NCI-H522; experiment: Growth inhibition of human NCI-H522 cells assessed as cell growth at 10^-5 M incubated for 48 hrs by sulforhodamine B assay relative to control; type: functional; conditions: NCI-H522, 48 h, read-out: Activity
[17] = tested on: HCC 2998; experiment: Growth inhibition of human HCC2998 cells assessed as cell growth at 10^-5 M incubated for 48 hrs by sulforhodamine B assay relative to control; type: functional; conditions: HCC 2998, 48 h, read-out: Activity
[18] = tested on: LOX IMVI; experiment: Growth inhibition of human LOXIMVI cells assessed as cell growth at 10^-5 M incubated for 48 hrs by sulforhodamine B assay relative to control; type: functional; conditions: read-out: Activity
[19] = tested on: M14; experiment: Growth inhibition of human M14 cells assessed as cell growth at 10^-5 M incubated for 48 hrs by sulforhodamine B assay relative to control; type: functional; conditions: M14, 48 h, read-out: Activity
[20] = tested on: Hs-578T; experiment: Growth inhibition of human Hs 578T cells assessed as cell growth at 10^-5 M incubated for 48 hrs by sulforhodamine B assay relative to control; type: functional; conditions: read-out: Activity
[21] = tested on: HOP-62; experiment: Growth inhibition of human HOP62 cells assessed as cell growth at 10^-4 M incubated for 48 hrs by sulforhodamine B assay relative to control; type: functional; conditions: HOP-62, 48 h, read-out: Activity
[22] = tested on: MDA-MB-435; experiment: Growth inhibition of human MDA-MB-435 cells assessed as cell growth at 10^-4 M incubated for 48 hrs by sulforhodamine B assay relative to control; type: functional; conditions: MDA-MB-435, 48 h, read-out: Activity
[23] = tested on: UACC-257; experiment: Growth inhibition of human UACC257 cells assessed as cell growth at 10^-4 M incubated for 48 hrs by sulforhodamine B assay relative to control; type: functional; conditions: UACC-257, 48 h, read-out: Activity
[24] = tested on: SN12C; experiment: Growth inhibition of human SN12C cells assessed as cell growth at 10^-4 M incubated for 48 hrs by sulforhodamine B assay relative to control; type: functional; conditions: read-out: Activity
[25] = tested on: EKVX; experiment: Growth inhibition of human EKVX cells incubated for 48 hrs by sulforhodamine B assay; type: functional
[26] = tested on: M14; experiment: Growth inhibition of human M14 cells incubated for 48 hrs by sulforhodamine B assay; type: functional; conditions: M14, 48 h
[27] = tested on: HL-60; experiment: Antiproliferative activity against human HL60 cells after 24 hrs by MTT assay; type: functional; conditions: for GI50: Homo sapiens, HL-60, 24 h
[28] = tested on: HL-60; experiment: Induction of apoptosis in human HL60 cells assessed as live cells by propidium iodide/Annexin V staining based flow cytometry (reference value: 96.94%); type: functional
[29] = tested on: HL-60; experiment: Induction of apoptosis in human HL60 cells assessed as early apoptotic cells by propidium iodide/Annexin V staining based flow cytometry (reference value: 0.37%); type: functional
[30] = tested on: MDA-MB-435; experiment: Induction of apoptosis in human MDA-MB-435 cells assessed as live cells by propidium iodide/Annexin V staining based flow cytometry (reference value: 97.4%); type: functional
[31] = tested on: HL-60; experiment: Induction of apoptosis in human HL60 cells assessed as increase in caspase-9 expression by qRT-PCR method; type: functional, cell-based
[32] = target: Histone deacetylase 2 (Homo sapiens, UniProt Q92769); experiment: Inhibition of human HDAC2 by ELISA
[33] = target: Histone deacetylase 8 (Homo sapiens, UniProt Q9BY41); experiment: Inhibition of HDAC8 (unknown origin) by ELISA
[34] = tested on: HL-60; experiment: Downregulation of HDAC2 mRNA expression in human HL60 cells by qRT-PCR method relative to control; type: functional
[35] = tested on: HL-60; experiment: Downregulation of HDAC8 mRNA expression in human HL60 cells by qRT-PCR method; type: functional, cell-based
[36] = read-out: LC50 (the source's name)
[37] = read-out: pLC50 (the source's name) (converted)

Histone deacetylase 2, sequence (Q92769 whole entry): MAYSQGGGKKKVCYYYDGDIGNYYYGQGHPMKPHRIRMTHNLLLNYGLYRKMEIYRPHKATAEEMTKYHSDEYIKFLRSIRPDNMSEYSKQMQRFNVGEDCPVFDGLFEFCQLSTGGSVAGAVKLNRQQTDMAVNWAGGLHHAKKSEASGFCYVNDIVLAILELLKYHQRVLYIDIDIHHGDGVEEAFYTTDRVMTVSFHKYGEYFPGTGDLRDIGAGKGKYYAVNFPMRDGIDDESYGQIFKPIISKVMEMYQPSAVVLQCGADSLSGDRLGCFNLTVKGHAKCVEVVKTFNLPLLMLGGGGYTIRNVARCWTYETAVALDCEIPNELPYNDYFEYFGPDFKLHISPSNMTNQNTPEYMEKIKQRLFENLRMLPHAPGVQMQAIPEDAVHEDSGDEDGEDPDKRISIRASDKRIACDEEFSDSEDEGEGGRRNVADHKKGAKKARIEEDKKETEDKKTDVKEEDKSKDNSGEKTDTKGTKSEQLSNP
Histone deacetylase 8, sequence (Q9BY41 whole entry): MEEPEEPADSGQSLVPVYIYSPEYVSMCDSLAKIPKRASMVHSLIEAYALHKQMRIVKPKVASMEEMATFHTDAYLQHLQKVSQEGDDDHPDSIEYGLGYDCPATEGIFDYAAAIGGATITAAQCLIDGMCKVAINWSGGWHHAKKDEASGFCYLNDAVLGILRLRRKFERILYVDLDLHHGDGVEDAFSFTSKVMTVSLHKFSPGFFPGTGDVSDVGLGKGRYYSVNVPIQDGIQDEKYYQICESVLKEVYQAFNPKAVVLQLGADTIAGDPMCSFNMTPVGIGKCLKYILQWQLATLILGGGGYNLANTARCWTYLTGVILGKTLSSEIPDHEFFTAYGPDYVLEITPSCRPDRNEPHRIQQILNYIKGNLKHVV

CCS/C(Nc1ccccc1)=C(\C#N)C(=O)N/N=C\c1ccc(Cl)cc1Cl
growth at 0.01 µM [1]: 95% | growth at 0.01 µM [2]: 94% | growth at 0.01 µM [3]: 102% | growth at 0.01 µM [4]: 108% | growth at 0.1 µM [5]: 82% | growth at 0.1 µM [6]: 97% | growth at 0.1 µM [7]: 98% | growth at 0.1 µM [8]: 84% | growth at 0.1 µM [9]: 95% | growth at 0.1 µM [10]: 88% | growth at 1 µM [11]: 92% | growth at 1 µM [12]: 87% | growth at 1 µM [13]: 79% | growth at 1 µM [14]: 83% | growth at 10 µM [15]: 35% | growth at 10 µM [16]: -2% | growth at 10 µM [17]: 33% | growth at 10 µM [18]: 39% | growth at 10 µM [19]: -1% | growth at 10 µM [20]: 18% | growth at 100 µM [21]: 8% | growth at 100 µM [22]: -52% | growth at 100 µM [23]: 35% | growth at 100 µM [24]: 28% | GI50 ([25]; read-out: GI50): 5.09 µM | CC50 [25, 36]: > 100 µM | TGI ([25]; read-out: TGI): > 100 µM | GI50 ([25]; read-out: pGI50 (converted)): 5.13 µM | CC50 [25, 37]: > 100 µM | TGI ([25]; read-out: pTGI): > 100 µM | GI50 ([26]; read-out: GI50): 2.01 µM | CC50 [26, 36]: > 100 µM | TGI ([26]; read-out: TGI): 9.61 µM | GI50 ([26]; read-out: pGI50 (converted)): 2 µM | CC50 [26, 37]: > 100 µM | TGI ([26]; read-out: pTGI (converted)): 9.55 µM | Activity [27]: Dose-dependent effect | GI50 [27]: 3.2 µM | Activity [28]: 79.88% | Activity [29]: 7.69% | Activity [30]: 91.29% | Activity [31]: Active | IC50 [32]: 0.02 µM | IC50 [33]: 0.202 µM | fold change (FC) [34]: <=10 | Activity [35]: Active

CCS/C(Nc1ccccc1)=C(\C#N)C(=O)Nc1ccc(OC)cc1
growth at 0.01 µM [1]: 100% | growth at 0.01 µM [2]: 100% | growth at 0.01 µM [3]: 99% | growth at 0.01 µM [4]: 105% | growth at 0.1 µM [5]: 86% | growth at 0.1 µM [6]: 95% | growth at 0.1 µM [7]: 93% | growth at 0.1 µM [8]: 85% | growth at 0.1 µM [9]: 89% | growth at 0.1 µM [10]: 86% | growth at 1 µM [11]: 79% | growth at 1 µM [12]: 90% | growth at 1 µM [13]: 79% | growth at 1 µM [14]: 77% | growth at 10 µM [15]: 31% | growth at 10 µM [16]: -1% | growth at 10 µM [17]: 41% | growth at 10 µM [18]: 40% | growth at 10 µM [19]: 10% | growth at 10 µM [20]: 28% | growth at 100 µM [21]: 37% | growth at 100 µM [22]: -35% | growth at 100 µM [23]: 37% | growth at 100 µM [24]: 16% | GI50 ([25]; read-out: GI50): 4.42 µM | CC50 [25, 36]: > 100 µM | TGI ([25]; read-out: TGI): > 100 µM | GI50 ([25]; read-out: pGI50 (converted)): 4.47 µM | CC50 [25, 37]: > 100 µM | TGI ([25]; read-out: pTGI): > 100 µM | GI50 ([26]; read-out: GI50): 2.27 µM | CC50 [26, 36]: > 100 µM | TGI ([26]; read-out: TGI): 87.4 µM | GI50 ([26]; read-out: pGI50 (converted)): 2.29 µM | CC50 [26, 37]: > 100 µM | TGI ([26]; read-out: pTGI (converted)): 87.1 µM | Activity [27]: Dose-dependent effect | GI50 [27]: 2.87 µM | Activity [28]: 84% | Activity [29]: 4.89% | Activity [30]: 85.55% | Activity [31]: Active | IC50 [32]: 0.032 µM | IC50 [33]: 0.295 µM | fold change (FC) [34]: <=10 | Activity [35]: Active
